The source of these data is patent US11713338B2, “Cyclic peptides multimers targeting α-4-β-7 integrin” (priority 2016, dated 2023).

Molecules are shown by their SMILES.

The assay concerns the target T1, recombinant integrin α4β7 (Homo sapiens, UniProt P13612+P26010, DEL724-798).
T1 construct: purchased R&D Systems 5397-A3-050
T1 sequence (P13612 34-970 limits assumed): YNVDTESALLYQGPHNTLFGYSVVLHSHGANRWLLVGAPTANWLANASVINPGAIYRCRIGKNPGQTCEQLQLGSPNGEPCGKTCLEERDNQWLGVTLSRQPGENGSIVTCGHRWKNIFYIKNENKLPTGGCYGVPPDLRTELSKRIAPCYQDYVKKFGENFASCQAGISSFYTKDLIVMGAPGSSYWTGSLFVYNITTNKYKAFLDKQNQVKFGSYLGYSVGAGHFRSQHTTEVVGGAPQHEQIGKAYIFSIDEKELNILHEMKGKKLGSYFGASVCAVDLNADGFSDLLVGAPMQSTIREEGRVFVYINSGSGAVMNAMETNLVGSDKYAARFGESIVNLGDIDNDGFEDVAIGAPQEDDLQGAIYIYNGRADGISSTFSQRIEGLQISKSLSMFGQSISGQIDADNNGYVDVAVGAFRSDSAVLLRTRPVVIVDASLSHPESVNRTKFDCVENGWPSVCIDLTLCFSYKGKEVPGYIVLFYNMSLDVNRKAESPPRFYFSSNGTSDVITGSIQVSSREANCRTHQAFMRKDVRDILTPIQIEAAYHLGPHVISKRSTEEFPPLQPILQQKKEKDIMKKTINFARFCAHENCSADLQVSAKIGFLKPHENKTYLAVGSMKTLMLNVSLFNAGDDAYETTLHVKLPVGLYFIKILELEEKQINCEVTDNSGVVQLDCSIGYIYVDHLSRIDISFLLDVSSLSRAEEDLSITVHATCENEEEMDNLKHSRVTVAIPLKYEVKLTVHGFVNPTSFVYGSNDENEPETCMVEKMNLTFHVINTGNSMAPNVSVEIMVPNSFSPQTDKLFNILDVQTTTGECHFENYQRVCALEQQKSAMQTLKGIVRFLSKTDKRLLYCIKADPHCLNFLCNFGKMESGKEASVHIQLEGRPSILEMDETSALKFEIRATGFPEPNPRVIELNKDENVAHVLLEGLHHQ
T1 sequence (P26010 20-723 limits assumed): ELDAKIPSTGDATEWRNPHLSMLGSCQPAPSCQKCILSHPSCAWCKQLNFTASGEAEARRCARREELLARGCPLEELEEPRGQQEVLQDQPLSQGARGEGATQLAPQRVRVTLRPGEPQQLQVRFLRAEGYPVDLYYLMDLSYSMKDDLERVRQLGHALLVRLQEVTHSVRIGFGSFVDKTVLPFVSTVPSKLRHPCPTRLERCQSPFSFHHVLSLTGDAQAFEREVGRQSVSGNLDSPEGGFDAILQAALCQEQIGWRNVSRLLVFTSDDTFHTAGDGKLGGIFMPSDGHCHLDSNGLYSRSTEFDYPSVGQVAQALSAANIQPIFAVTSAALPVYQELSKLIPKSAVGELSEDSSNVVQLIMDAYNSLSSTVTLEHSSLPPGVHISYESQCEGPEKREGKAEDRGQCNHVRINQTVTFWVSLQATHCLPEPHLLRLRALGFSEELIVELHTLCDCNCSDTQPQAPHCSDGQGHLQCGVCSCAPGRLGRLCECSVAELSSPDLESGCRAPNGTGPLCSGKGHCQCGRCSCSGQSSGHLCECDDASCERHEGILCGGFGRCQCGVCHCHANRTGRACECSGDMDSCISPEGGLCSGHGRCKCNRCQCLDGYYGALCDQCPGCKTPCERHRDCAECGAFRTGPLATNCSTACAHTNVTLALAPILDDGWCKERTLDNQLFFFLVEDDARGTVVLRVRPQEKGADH
As to the kind of experiment: Integrin α4β7—MAdCAM-1 ELISA competition assay. Type of assay: binding. As to conditions: for ELISA Assay Ratio b1/b7: ratio of a4b1 to a4b7 ELISA IC50; for IC50: read-out: ELISA a4b7 Assay IC50.

For `CC(C)C[C@@H]1NC(=O)[C@H](Cc2ccc(O)cc2)NC(=O)[C@@H]2CCCN2C(C(=O)NC(C)(C)C)C(CSc2ccccc2)NC(=O)[C@H](C(C)C)NC(=O)[C@H](CC(=O)O)NC1=O` (some centres unmarked) [Compound 1], the “ELISA Assay Ratio b1/b7” value is listed as 0.988. On to `CC(C)C[C@@H]1NC(=O)[C@H](Cc2ccc(O)cc2)NC(=O)[C@@H]2CCCN2C(C(=O)NC(C)(C)C)C(CSc2ccccc2)NC(=O)[C@H]([C@@H](C)O)NC(=O)[C@H](CC(=O)O)NC1=O` (some centres unmarked) [Compound 3], for which the “ELISA Assay Ratio b1/b7” value came to 2.474.

As usually defined, the IC50 is the concentration at which inhibition is half-maximal. Turning to `CC[C@H](C)[C@@H]1NC(=O)[C@H](CC(=O)O)NC(=O)[C@H](CC(C)C)NC(=O)[C@H](Cc2c[nH]c3ccccc23)NC(=O)[C@@H]2CCCN2[C@H](C(=O)NC(C)(C)C)[C@H](C)NC1=O` [Compound 8], the IC50 stood at 103 nM. Take `CC(C)C[C@@H]1NC(=O)[C@H](Cc2ccc(-c3ccccc3)cc2)NC(=O)[C@@H]2CCCN2[C@H](C(=O)NC(C)(C)C)[C@H](C)NC(=O)[C@H]([C@@H](C)OCc2ccccc2)NC(=O)[C@H](CC(=O)O)NC1=O` [Compound 18]: the IC50 amounted to 120 nM. As to `CC[C@H](C)[C@@H]1NC(=O)[C@H](CC(=O)O)NC(=O)[C@H](CC(C)C)NC(=O)[C@H](Cc2ccc(O)cc2)NC(=O)[C@@H]2CCCN2[C@H](C(=O)NC(C)(C)C)[C@H](C)NC1=O` [Compound 53], the IC50 is 182 nM. Turning to `CC(C)C[C@@H]1NC(=O)[C@H](Cc2ccncc2)NC(=O)[C@@H]2CCCN2[C@H](C(=O)NC(C)(C)C)[C@H](C)NC(=O)[C@H]([C@@H](C)O)NC(=O)[C@H](CC(=O)O)NC1=O` [Compound 54], the half-maximal inhibitory concentration (IC50) turned out to be 190 nM. On to `CC(C)C[C@@H]1NC(=O)[C@@H](Cc2ccncc2)NC(=O)[C@@H]2CCCN2[C@H](C(=O)NC(C)(C)C)[C@H](C)NC(=O)[C@H]([C@@H](C)O)NC(=O)[C@H](CC(=O)O)NC1=O` [Compound 62], for which the “ELISA Assay Ratio b1/b7” value came to 4.3 and the half-maximal inhibitory concentration (IC50) was 27 nM.

As for `CC(C)C[C@@H]1NC(=O)[C@@H]2C[C@@H](O)CN2C(=O)[C@@H]2CCCN2[C@H](C(=O)NC(C)(C)C)[C@H](C)NC(=O)[C@H]([C@@H](C)O)NC(=O)[C@H](CC(=O)O)NC1=O` [Compound 63], the IC50 was found to be 107 nM. Turning to `CCC[C@@H]1NC(=O)[C@@H]2CCCN2[C@H](C(=O)NC(C)(C)C)[C@H](C)NC(=O)[C@H]([C@@H](C)O)NC(=O)[C@H](CC(=O)O)NC(=O)[C@H](CC(C)C)NC1=O` [Compound 71], the “ELISA Assay Ratio b1/b7” value is 4.4 and the IC50 was found to be 184 nM. Take `CC(C)C[C@@H]1NC(=O)[C@H](Cc2csc(-c3cccnc3)n2)NC(=O)[C@@H]2CCCN2[C@H](C(=O)NC(C)(C)C)[C@H](C)NC(=O)[C@H]([C@@H](C)O)NC(=O)[C@H](CC(=O)O)NC1=O` [Compound 96]: the IC50 is 138 nM. Same read-out and setting: the figure for `CC(C)C[C@@H]1NC(=O)[C@@H]2c3ccccc3CN2C(=O)[C@@H]2CCCN2[C@H](C(=O)NC(C)(C)C)[C@H](C)NC(=O)[C@H]([C@@H](C)O)NC(=O)[C@H](CC(=O)O)NC1=O` [Compound 99] is 57 nM.

As to `CC(C)C[C@@H]1NC(=O)[C@H]2CCCN2C(=O)[C@H](Cc2cc(F)c(F)c(F)c2)NC(=O)[C@@H]2CCCN2[C@H](C(=O)NC(C)(C)C)[C@H](C)NC(=O)[C@H]([C@@H](C)O)NC(=O)[C@H](CC(=O)O)NC1=O` [Compound 128], the “ELISA Assay Ratio b1/b7” value was found to be 11.4 and the concentration for half-maximal inhibition (IC50) came to 26 nM. On to `CC(C)C[C@@H]1NC(=O)[C@H]2CCCCN2C(=O)[C@H](Cc2ccccc2-c2ccccc2)NC(=O)[C@@H]2CCCN2[C@H](C(=O)NC(C)(C)C)[C@H](C)NC(=O)[C@H]([C@@H](C)O)NC(=O)[C@H](CC(=O)O)NC1=O` [Compound 134], for which the “ELISA Assay Ratio b1/b7” value is 7.6 and the IC50 was 23 nM. On the same counts, the results for `COc1ccc(-c2ccccc2C[C@@H]2NC(=O)[C@@H]3CCCN3[C@H](C(=O)NC(C)(C)C)[C@H](C)NC(=O)[C@H]([C@@H](C)O)NC(=O)[C@H](CC(=O)O)NC(=O)[C@H](CC(C)C)NC(=O)[C@H]3CCCCN3C2=O)cc1` [Compound 137] are 7.8 and 33 nM. As for `CC(C)C[C@@H]1NC(=O)[C@H]2C[C@H](O)CN2C(=O)[C@H](Cc2ccc(O)cc2)NC(=O)[C@@H]2CCCN2[C@H](C(=O)NC(C)(C)C)[C@H](C)NC(=O)[C@H]([C@@H](C)O)NC(=O)[C@H](CC(=O)O)NC1=O` [Compound 140], the “ELISA Assay Ratio b1/b7” value is 9.6 and the IC50 came out at 53 nM. Take `CCCC[C@H]1NC(=O)[C@H](Cc2ccc(O)cc2)NC(=O)[C@@H]2CCCN2[C@H](C(=O)NC(C)(C)C)[C@H](C)NC(=O)[C@H]([C@@H](C)O)NC(=O)[C@H](CC(=O)O)NC(=O)[C@H](CC(C)C)NC1=O` [Compound 155]: the IC50 was found to be 54 nM. On the same count and under the same terms, the result for `CC(C)C[C@@H]1NC(=O)CN(C)C(=O)[C@H](Cc2cscn2)NC(=O)[C@@H]2CCCN2[C@H](C(=O)NC(C)(C)C)[C@H](C)NC(=O)[C@H]([C@@H](C)O)NC(=O)[C@H](CC(=O)O)NC1=O` [Compound 164] reads 127 nM. Regarding `CC(C)C[C@@H]1NC(=O)CNC(=O)[C@H](Cc2ccc(CN)cc2)NC(=O)[C@@H]2CCCN2[C@H](C(=O)NC(C)(C)C)[C@H](C)NC(=O)[C@H]([C@@H](C)O)NC(=O)[C@H](CC(=O)O)NC1=O` [Compound 165], the “ELISA Assay Ratio b1/b7” value was found to be 22.8 and the IC50 is 128 nM. `C=CCOc1ccc(C[C@@H]2NC(=O)[C@@H]3CCCN3[C@H](C(=O)NC(C)(C)C)[C@H](C)NC(=O)[C@H]([C@@H](C)O)NC(=O)[C@H](CC(=O)O)NC(=O)[C@H](CC(C)C)NC(=O)[C@@H](CO)NC2=O)cc1` [Compound 167]: the “ELISA Assay Ratio b1/b7” value amounted to 13.6 and the IC50 came to 147 nM.

As to `CC(C)C[C@@H]1NC(=O)CN(C)C(=O)[C@H](Cc2csc(-c3cccnc3)n2)NC(=O)[C@@H]2CCCN2[C@H](C(=O)NC(C)(C)C)[C@H](C)NC(=O)[C@H]([C@@H](C)O)NC(=O)[C@H](CC(=O)O)NC1=O` [Compound 181], the “ELISA Assay Ratio b1/b7” value came to 12.6. As to `CC(C)C[C@@H]1NC(=O)[C@H]2CCCCN2C(=O)[C@@H](Cc2cccc(-c3cccc4ncccc34)c2)NC(=O)[C@@H]2CCCN2[C@H](C(=O)NC(C)(C)C)[C@H](C)NC(=O)[C@H]([C@@H](C)O)NC(=O)[C@H](CC(=O)O)NC1=O` [Compound 192], the IC50 stood at 118 nM. For `CC(C)C[C@@H]1NC(=O)C[C@H](CCCCN)NC(=O)[C@H](Cc2ccc(O)cc2)NC(=O)[C@@H]2CCCN2[C@H](C(=O)NC(C)(C)C)[C@H](C)NC(=O)[C@H]([C@@H](C)OCc2ccccc2)NC(=O)[C@H](CC(=O)O)NC1=O` [Compound 200], the “ELISA Assay Ratio b1/b7” value is listed as 2.6 and the concentration for half-maximal inhibition (IC50) is 134 nM. Consider `CC(C)C[C@@H]1NC(=O)C[C@H](CCCCN)NC(=O)[C@H](Cc2ccc3ccccc3c2)NC(=O)[C@@H]2CCCN2[C@H](C(=O)NC(C)(C)C)[C@H](C)NC(=O)[C@H]([C@@H](C)O)NC(=O)[C@H](CC(=O)O)NC1=O` [Compound 203], for which the IC50 came out at 55 nM.

Take `CC(C)C[C@@H]1NC(=O)C[C@H](CCCCN)NC(=O)[C@H](Cc2ccc(-c3ccccc3)cc2)NC(=O)[C@@H]2CCCN2[C@H](C(=O)NC(C)(C)C)[C@H](C)NC(=O)[C@H]([C@@H](C)O)NC(=O)[C@H](CC(=O)O)NC1=O` [Compound 204]: the IC50 was determined as 63 nM.

For `CC[C@H](C)[C@@H]1NC(=O)[C@H](CC(=O)O)NC(=O)[C@H](CC(C)C)NC(=O)C[C@H](CCCCN)NC(=O)[C@H](Cc2ccc(CN)cc2)NC(=O)[C@@H]2CCCN2[C@H](C(=O)NC(C)(C)C)[C@H](C)NC1=O` [Compound 215], the “ELISA Assay Ratio b1/b7” value turned out to be 12.4 and the IC50 is 33 nM.
